Data as given in ChEMBL document CHEMBL1145170, “Development of a three-dimensional model for the N-methyl-D-aspartate NR2A subunit” (J Med Chem, 2005).

Molecular target: T1, Glutamate receptor ionotropic, NMDA 2A (Rattus norvegicus, UniProt Q00959)
Assay: Inhibition of [3H]CPP binding to rat N-methyl-D-aspartic acid receptor 2A

T1 sequence (Q00959 whole entry): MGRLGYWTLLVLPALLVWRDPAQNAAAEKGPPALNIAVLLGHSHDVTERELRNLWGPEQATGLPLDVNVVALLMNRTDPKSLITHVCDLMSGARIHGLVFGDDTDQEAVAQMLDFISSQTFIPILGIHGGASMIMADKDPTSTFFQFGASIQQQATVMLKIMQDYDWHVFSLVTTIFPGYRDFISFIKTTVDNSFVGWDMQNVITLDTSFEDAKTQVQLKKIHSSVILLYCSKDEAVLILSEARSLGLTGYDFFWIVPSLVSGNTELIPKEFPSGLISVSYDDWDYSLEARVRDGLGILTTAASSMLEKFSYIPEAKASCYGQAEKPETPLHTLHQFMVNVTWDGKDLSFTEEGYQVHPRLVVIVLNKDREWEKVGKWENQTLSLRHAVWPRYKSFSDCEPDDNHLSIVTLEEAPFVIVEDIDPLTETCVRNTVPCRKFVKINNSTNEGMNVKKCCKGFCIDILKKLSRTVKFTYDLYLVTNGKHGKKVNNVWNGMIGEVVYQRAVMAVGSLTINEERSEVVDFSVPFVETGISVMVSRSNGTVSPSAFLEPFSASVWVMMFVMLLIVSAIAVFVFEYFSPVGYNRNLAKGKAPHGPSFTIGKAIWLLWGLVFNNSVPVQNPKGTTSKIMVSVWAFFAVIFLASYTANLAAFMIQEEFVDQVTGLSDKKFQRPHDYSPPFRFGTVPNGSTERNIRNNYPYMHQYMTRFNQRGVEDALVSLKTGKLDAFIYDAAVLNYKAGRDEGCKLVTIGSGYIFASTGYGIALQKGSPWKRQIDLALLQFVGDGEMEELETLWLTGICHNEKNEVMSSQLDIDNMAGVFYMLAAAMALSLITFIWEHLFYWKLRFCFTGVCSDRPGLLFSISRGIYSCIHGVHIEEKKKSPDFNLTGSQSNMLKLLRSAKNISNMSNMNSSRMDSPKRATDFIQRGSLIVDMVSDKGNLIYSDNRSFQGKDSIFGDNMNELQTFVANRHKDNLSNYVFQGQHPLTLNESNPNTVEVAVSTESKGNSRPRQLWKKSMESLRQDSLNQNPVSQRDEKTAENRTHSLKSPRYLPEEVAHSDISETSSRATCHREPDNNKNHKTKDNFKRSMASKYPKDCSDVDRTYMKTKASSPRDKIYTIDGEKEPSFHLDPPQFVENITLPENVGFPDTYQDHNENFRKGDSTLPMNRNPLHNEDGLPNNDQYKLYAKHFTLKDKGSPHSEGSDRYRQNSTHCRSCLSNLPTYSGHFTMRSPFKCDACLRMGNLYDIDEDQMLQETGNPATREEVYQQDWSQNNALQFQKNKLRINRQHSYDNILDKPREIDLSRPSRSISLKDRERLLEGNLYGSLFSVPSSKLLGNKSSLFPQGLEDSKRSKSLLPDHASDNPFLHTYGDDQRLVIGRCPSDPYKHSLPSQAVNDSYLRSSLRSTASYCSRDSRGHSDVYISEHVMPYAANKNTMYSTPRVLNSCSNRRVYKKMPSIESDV

SMILES	IC50
C/C(=C\[C@@H](N)C(=O)O)CP(=O)(O)O [CGP-37849]	35 nM
N[C@H](CC(=O)CP(=O)(O)O)C(=O)O	110 nM
O=C(O)[C@@H]1C[C@H](CP(=O)(O)O)CCN1 (single isomer, unassigned) [SELFOTEL]	95 nM
N[C@@H](CCCP(=O)(O)O)C(=O)O	290 nM

Molecular target: T1, Glutamate receptor ionotropic, NMDA 2A
Assay: Inhibition of [3H]Glu binding to rat N-methyl-D-aspartic acid receptor 2A

SMILES	IC50
C/C(=C\[C@@H](N)C(=O)O)CP(=O)(O)O [CGP-37849]	220 nM
O=C(O)[C@@H]1C[C@H](CP(=O)(O)O)CCN1 (single isomer, unassigned) [SELFOTEL]	840 nM
CCC/C(=C\[C@@H](N)C(=O)O)CP(=O)(O)O	230 nM
N[C@@H](CCCP(=O)(O)O)C(=O)O	1500 nM
